Columns and labels:
Assay type in all cases: in vivo
kochia (Bassia scoparia) [1] = assay: Test A preemergence soil spray, visual injury rating 0-100; conditions: 10 days
Method in brief: (§1)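 Greenhouse test: loam/sand pots received a surfactant-containing formulation, as a preemergence directed soil spray or a postemergence spray on young plants. Injury was judged visually at day 10 relative to untreated controls.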

[2] = test system: ryegrass, Italian (italian ryegrass, Lolium multiflorum); assay: as above; conditions: 10 days
Method in brief: as §1

[3] = test system: oat, wild (wild oat, Avena fatua); assay: as above; conditions: 10 days
Method in brief: as §1

corn (Zea mays) [4] = assay: as above; conditions: 10 days
Method in brief: as §1

[5] = test system: blackgrass (Alopecurus myosuroides); assay: as above; conditions: 10 days
Method in brief: as §1

[6] = test system: palmer (palmer amaranth, palmer pigweed, Amaranthus palmeri); assay: as above; conditions: 62 g ai/ha, 10 days, 0 = no effect, 100 = complete control
Method in brief: as §1

[7] = test system: barnyardgrass (Echinochloa crus-galli); assay: as above; conditions: 10 days
Method in brief: as §1

[8] = test system: ragweed (common ragweed, Ambrosia artemisiifolia); assay: as above; conditions: 10 days
Method in brief: as §1

[9] = test system: green foxtail (Setaria viridis); assay: as above; conditions: 10 days
Method in brief: as §1

[10] = test system: wheat (Triticum aestivum); assay: as above; conditions: 10 days
Method in brief: as §1

soybean (Glycine max) [11] = assay: as above; conditions: 10 days
Method in brief: as §1

[12] = test system: sedge, umbrella (small-flower umbrella sedge, Cyperus difformis); assay: Test B flooded paddy test, visual plant response rating 0-100; conditions: 250 g ai/ha, Flood, applied to paddy water, evaluated after 13 days
Method in brief: (§2)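 Plants were grown to the 2-leaf stage, then pots were flooded to 3 cm above the soil and test compounds were applied directly into the paddy water. Water depth was held there throughout; after 13 days in a greenhouse, injury was scored visually against untreated controls.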

rice (Oryza sativa) = assay: as above; conditions: 250 g ai/ha, Flood, applied to paddy water, evaluated after 13 days
Method in brief: as §2

[13] = test system: ducksalad (Heteranthera limosa); assay: as above; conditions: 250 g ai/ha, Flood, applied to paddy water, evaluated after 13 days
Method in brief: as §2

[14] = test system: barnyardgrass (Echinochloa crusgalli); assay: as above; conditions: 250 g ai/ha, Flood, applied to paddy water, evaluated after 13 days
Method in brief: as §2

kochia (Bassia scoparia) [15] = assay: Test A postemergence application, visual injury rating 0-100
Method in brief: as §1

[16] = test system: ryegrass, Italian (italian ryegrass, Lolium multiflorum); assay: as above
Method in brief: as §1

[17] = test system: oat, wild (wild oat, Avena fatua); assay: as above
Method in brief: as §1

[18] = test system: horseweed (Erigeron canadensis); assay: as above; conditions: 62 g ai/ha, postemergence, 10 days, 0 = no effect, 100 = complete control
Method in brief: as §1

corn (Zea mays) [19] = assay: as above
Method in brief: as §1

[20] = test system: blackgrass (Alopecurus myosuroides); assay: as above
Method in brief: as §1

[21] = test system: palmer (palmer amaranth, palmer pigweed, Amaranthus palmeri); assay: as above
Method in brief: as §1

[22] = test system: barnyardgrass (Echinochloa crus-galli); assay: as above
Method in brief: as §1

[23] = test system: ragweed (common ragweed, Ambrosia artemisiifolia); assay: as above
Method in brief: as §1

[24] = test system: green foxtail (Setaria viridis); assay: as above
Method in brief: as §1

[25] = test system: wheat (Triticum aestivum); assay: as above
Method in brief: as §1

soybean (Glycine max) [26] = assay: as above
Method in brief: as §1

[27] = 62 g ai/ha, 0 = no effect, 100 = complete control
[28] = 62 g ai/ha, postemergence, 10 days, 0 = no effect, 100 = complete control
[29] = Postemergence, 16 g ai/ha, greenhouse 10 days, 0 no effect, 100 complete control

CC(C)OC(=O)C1=CCC(NC(=O)C2(C)CN(c3cc(Cl)cc(Cl)c3)C(=O)O2)C1 (stereo not drawn) [Compound 105]
Kochia plant response rating (kochia (Bassia scoparia) [1]; 16 g ai/ha, 0 to 100 scale): 0
Kochia plant response rating (0-100) (kochia (Bassia scoparia) [1]; [27]): 0
Ryegrass, Italian plant response rating ([2]; 16 g ai/ha, 0 to 100 scale): 0
Ryegrass, Italian plant response rating (0-100) [2, 27]: 0
Oat, Wild plant response rating ([3]; 16 g ai/ha, 0 to 100 scale): 0
Oat, Wild plant response rating (0-100) [3, 27]: 0
Corn plant response rating (corn (Zea mays) [4]; 16 g ai/ha, 0 to 100 scale): 0
Corn plant response rating (0-100) (corn (Zea mays) [4]; [27]): 0
Blackgrass plant response rating ([5]; 16 g ai/ha, 0 to 100 scale): 0
Blackgrass plant response rating (0-100) [5, 27]: 0
Pigweed, Palmer plant response rating (0-100) [6]: 10
Barnyardgrass plant response rating ([7]; 16 g ai/ha, 0 to 100 scale): 0
Barnyardgrass plant response rating (0-100) [7, 27]: 0
Ragweed plant response rating ([8]; 16 g ai/ha, 0 to 100 scale): 0
Ragweed plant response rating (0-100) [8, 27]: 0
Foxtail, Green plant response rating ([9]; 16 g ai/ha, 0 to 100 scale): 0
Foxtail, Green plant response rating (0-100) [9, 27]: 0
Wheat plant response rating ([10]; 16 g ai/ha, 0 to 100 scale): 0
Wheat plant response rating (0-100) [10, 27]: 0
Soybean plant response rating (soybean (Glycine max) [11]; 16 g ai/ha, 0 to 100 scale): 0
Soybean plant response rating (0-100) (soybean (Glycine max) [11]; [27]): 0
Plant response rating, Sedge, Umbrella (0 to 100 scale, 0 is no effect and 100 is complete control) [12]: 0
Plant response rating, Rice (0 to 100 scale, 0 is no effect and 100 is complete control) (rice (Oryza sativa)): 0
Plant response rating, Ducksalad (0 to 100 scale, 0 is no effect and 100 is complete control) [13]: 0
Plant response rating, Barnyardgrass (0 to 100 scale, 0 is no effect and 100 is complete control) [14]: 0
Kochia plant response rating (0-100) (kochia (Bassia scoparia) [15]; [28]): 0
Kochia plant response rating (0 to 100 scale) (kochia (Bassia scoparia) [15]; [29]): 0
Ryegrass, Italian plant response rating (0-100) [16, 28]: 0
Ryegrass, Italian plant response rating (0 to 100 scale) [16, 29]: 0
Oat, Wild plant response rating (0-100) [17, 28]: 0
Oat, Wild plant response rating (0 to 100 scale) [17, 29]: 0
Horseweed plant response rating (0-100) [18]: 20
Corn plant response rating (0-100) (corn (Zea mays) [19]; [28]): 10
Corn plant response rating (0 to 100 scale) (corn (Zea mays) [19]; [29]): 0
Blackgrass plant response rating (0-100) [20, 28]: 10
Blackgrass plant response rating (0 to 100 scale) [20, 29]: 0
Pigweed, Palmer plant response rating (0-100) [21, 28]: 10
Pigweed, Palmer plant response rating (0 to 100 scale) [21, 29]: 0
Barnyardgrass plant response rating (0-100) [22, 28]: 30
Barnyardgrass plant response rating (0 to 100 scale) [22, 29]: 0
Ragweed plant response rating (0-100) [23, 28]: 0
Ragweed plant response rating (0 to 100 scale) [23, 29]: 0
Foxtail, Green plant response rating (0-100) [24, 28]: 0
Foxtail, Green plant response rating (0 to 100 scale) [24, 29]: 0
Wheat plant response rating (0-100) [25, 28]: 0
Wheat plant response rating (0 to 100 scale) [25, 29]: 0
Soybean plant response rating (0-100) (soybean (Glycine max) [26]; [28]): 0
Soybean plant response rating (0 to 100 scale) (soybean (Glycine max) [26]; [29]): 0

— patent US20260285850A1, “SUBSTITUTED OXAZOLIDINONES AND IMIDAZOLINONES AS HERBICIDES” (FMC CORPORATION, priority 2023, published 2026)
